#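 How tested: cells in 96-well plates exposed to compound for 48 hours at five concentrations. GI50 = concentration required for 50% inhibition of growth. The concentration for full growth arrest is given as TGI.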
# Columns and labels:
# Test in all cases: DTP human tumour cell line panel, 48 h
# [1] = test system: NCI-H23 lung
# [2] = test system: U251 CNS
# [3] = test system: SR leukemia
# [4] = test system: HOP-92 NSCLC
# [5] = test system: TK-10 renal
# [6] = test system: HT29 colon
# [7] = test system: 786-0 renal
# [8] = test system: OVCAR-3 ovarian
# [9] = test system: PC-3 prostate
# [10] = test system: SK-MEL-28 melanoma
# [11] = test system: SF-295 CNS
# [12] = test system: MCF7 breast
# [13] = test system: UACC-62 melanoma
# [14] = test system: IGROV1 ovarian
# [15] = test system: OVCAR-4 ovarian
# [16] = test system: NCI/ADR-RES ovarian
# [17] = test system: COLO 205 colon
# [18] = test system: UACC-257 melanoma
# [19] = test system: MOLT-4 leukemia
# [20] = test system: T-47D breast
# [21] = test system: BT-549 breast
# [22] = test system: HCT-15 colon
# [23] = test system: A498 renal
# [24] = test system: SK-MEL-5 melanoma
# [25] = test system: NCI-H226 lung
# [26] = test system: MDA-MB-468 breast
# [27] = test system: OVCAR-5 ovarian
# [28] = test system: HOP-62 NSCLC
# [29] = test system: OVCAR-8 ovarian
# [30] = test system: HCC-2998 colon
# [31] = test system: SK-MEL-2 melanoma
# [32] = test system: RXF 393 renal
# [33] = test system: SK-OV-3 ovarian
# [34] = test system: NCI-H522 lung
# [35] = test system: KM12 colon
# [36] = test system: DU-145 prostate
# [37] = test system: SF-268 CNS
# [38] = test system: NCI-H460 lung
# [39] = test system: SN12C renal
# [40] = test system: M14 melanoma
# [41] = test system: SNB-75 CNS
# [42] = test system: MDA-MB-435
# [43] = test system: A549 NSCLC
# [44] = test system: UO-31 renal
# [45] = test system: SNB-19 CNS
# [46] = test system: HCT-116 colon
# [47] = test system: EKVX NSCLC
# [48] = test system: SF-539 CNS
# [49] = test system: CCRF-CEM leukemia
# [50] = test system: MALME-3M melanoma
# [51] = test system: RPMI-8226 leukemia
# [52] = test system: CAKI-1 renal
# [53] = test system: HL-60(TB) leukemia
# [54] = test system: K-562 leukemia
# [55] = test system: ACHN renal
# [56] = test system: SW-620 colon
# [57] = test system: HS 578T breast
# [58] = test system: LOX IMVI melanoma
# [59] = test system: MDA-MB-231 breast
smiles,measurement,setting,value
Cn1cc(-c2cc3nc(-c4cn(C)c5ncc(Br)cc45)cc(N)n3n2)c2ccccc21,GI50,[1],15.7 µM
same,TGI,[1],41.3 µM
same,GI50,[2],5.65 µM
same,TGI,[2],27.4 µM
same,GI50,[3],2.46 µM
same,TGI,[3],> 100 µM
same,GI50,[4],4.97 µM
same,TGI,[4],25.1 µM
same,GI50,[5],13.8 µM
same,TGI,[5],44.9 µM
same,GI50,[6],5.65 µM
same,TGI,[6],20.4 µM
same,GI50,[7],13.4 µM
same,TGI,[7],33.3 µM
same,GI50,[8],13.5 µM
same,TGI,[8],28.5 µM
same,GI50,[9],6.58 µM
same,TGI,[9],> 100 µM
same,GI50,[10],15.2 µM
same,TGI,[10],29.1 µM
same,GI50,[11],13.5 µM
same,TGI,[11],31.1 µM
same,GI50,[12],5.31 µM
same,TGI,[12],27.3 µM
same,GI50,[13],11.5 µM
same,TGI,[13],24.8 µM
same,GI50,[14],11.7 µM
same,TGI,[14],32.6 µM
same,GI50,[15],17.1 µM
same,TGI,[15],59.7 µM
same,GI50,[16],17.4 µM
same,TGI,[16],76.1 µM
same,GI50,[17],16.8 µM
same,TGI,[17],33.8 µM
same,GI50,[18],14 µM
same,TGI,[18],30.4 µM
same,GI50,[19],3.52 µM
same,TGI,[19],30.9 µM
same,GI50,[20],7.38 µM
same,TGI,[20],30.4 µM
same,GI50,[21],19.5 µM
same,TGI,[21],47.8 µM
same,GI50,[22],2.53 µM
same,TGI,[22],6.94 µM
same,GI50,[23],8.84 µM
same,TGI,[23],23.7 µM
same,GI50,[24],15.1 µM
same,TGI,[24],28.4 µM
same,GI50,[25],15.1 µM
same,TGI,[25],62.7 µM
same,GI50,[26],3.71 µM
same,TGI,[26],15.6 µM
same,GI50,[27],14.5 µM
same,TGI,[27],35.1 µM
same,GI50,[28],14.8 µM
same,TGI,[28],46.5 µM
same,GI50,[29],21.8 µM
same,TGI,[29],85.9 µM
same,GI50,[30],3.74 µM
same,TGI,[30],13.9 µM
same,GI50,[31],11.2 µM
same,TGI,[31],26.7 µM
same,GI50,[32],6.13 µM
same,TGI,[32],19.3 µM
same,GI50,[33],20.4 µM
same,TGI,[33],59.6 µM
same,GI50,[34],12.8 µM
same,TGI,[34],32.7 µM
same,GI50,[35],6.04 µM
same,TGI,[35],26.7 µM
same,GI50,[36],21.4 µM
same,TGI,[36],> 100 µM
same,GI50,[37],13.1 µM
same,TGI,[37],89.6 µM
same,GI50,[38],7.78 µM
same,TGI,[38],28.1 µM
same,GI50,[39],12.8 µM
same,TGI,[39],27.9 µM
same,GI50,[40],15.3 µM
same,TGI,[40],38.1 µM
same,GI50,[41],11.9 µM
same,TGI,[41],58.2 µM
same,GI50,[42],16.4 µM
same,TGI,[42],34.1 µM
same,GI50,[43],9.25 µM
same,TGI,[43],> 100 µM
same,GI50,[44],13.1 µM
same,TGI,[44],45.8 µM
same,GI50,[45],17.8 µM
same,TGI,[45],41.9 µM
same,GI50,[46],7.98 µM
same,TGI,[46],27.6 µM
same,GI50,[47],10.1 µM
same,TGI,[47],27.1 µM
same,GI50,[48],14.1 µM
same,TGI,[48],28.7 µM
same,GI50,[49],3.52 µM
same,TGI,[49],> 100 µM
same,GI50,[50],16.8 µM
same,TGI,[50],32.7 µM
same,GI50,[51],13.6 µM
same,TGI,[51],> 100 µM
same,GI50,[52],12.7 µM
same,TGI,[52],48.1 µM
same,GI50,[53],3.53 µM
same,TGI,[53],32.6 µM
same,GI50,[54],2.94 µM
same,TGI,[54],> 100 µM
same,GI50,[55],13.5 µM
same,TGI,[55],45.6 µM
CN1CCN(Cc2ccc(C(=O)Nc3cccc(Nc4ccc5c(O)cccc5n4)c3)cc2C(F)(F)F)CC1,GI50,[1],2.26 µM
same,TGI,[1],4.79 µM
same,GI50,[2],2.38 µM
same,TGI,[2],5.2 µM
same,GI50,[3],4.39 µM
same,TGI,[3],> 100 µM
same,GI50,[4],1.32 µM
same,TGI,[4],5.8 µM
same,GI50,[5],3.36 µM
same,TGI,[5],13.1 µM
same,GI50,[6],2.06 µM
same,TGI,[6],4.41 µM
same,GI50,[7],2.11 µM
same,TGI,[7],4.28 µM
same,GI50,[8],3.1 µM
same,TGI,[8],8 µM
same,GI50,[9],2.53 µM
same,TGI,[9],14.6 µM
same,GI50,[10],1.77 µM
same,TGI,[10],3.21 µM
same,GI50,[11],1.65 µM
same,TGI,[11],3.16 µM
same,GI50,[12],1.74 µM
same,TGI,[12],3.41 µM
same,GI50,[13],1.73 µM
same,TGI,[13],3.49 µM
same,GI50,[14],4.7 µM
same,TGI,[14],17 µM
same,GI50,[15],7.39 µM
same,TGI,[15],21 µM
same,GI50,[16],3.45 µM
same,TGI,[16],12 µM
same,GI50,[17],1.99 µM
same,TGI,[17],3.94 µM
same,GI50,[18],1.92 µM
same,TGI,[18],3.86 µM
same,GI50,[19],1.86 µM
same,TGI,[19],5.29 µM
same,GI50,[20],10.7 µM
same,TGI,[20],26.4 µM
same,GI50,[21],15.6 µM
same,TGI,[21],30.2 µM
same,GI50,[22],1.82 µM
same,TGI,[22],3.54 µM
same,GI50,[23],17.5 µM
same,TGI,[23],33.3 µM
same,GI50,[24],1.68 µM
same,TGI,[24],3.07 µM
same,GI50,[25],19.2 µM
same,TGI,[25],41.7 µM
same,GI50,[26],1.62 µM
same,TGI,[26],3.16 µM
same,GI50,[27],3.24 µM
same,TGI,[27],14.4 µM
same,GI50,[28],3 µM
same,TGI,[28],8.85 µM
same,GI50,[29],3.56 µM
same,TGI,[29],14 µM
same,GI50,[30],1.89 µM
same,TGI,[30],3.36 µM
same,GI50,[31],1.92 µM
same,TGI,[31],3.68 µM
same,GI50,[32],1.66 µM
same,TGI,[32],3.58 µM
same,GI50,[33],14.4 µM
same,TGI,[33],29.2 µM
same,GI50,[34],1.93 µM
same,TGI,[34],3.97 µM
same,GI50,[35],2.3 µM
same,TGI,[35],5.23 µM
same,GI50,[36],4.68 µM
same,TGI,[36],17.7 µM
same,GI50,[37],3.81 µM
same,TGI,[37],19 µM
same,GI50,[56],2.24 µM
same,TGI,[56],4.18 µM
same,GI50,[39],2.34 µM
same,TGI,[39],6.03 µM
same,GI50,[40],2.21 µM
same,TGI,[40],5.67 µM
same,GI50,[41],1.85 µM
same,TGI,[41],13.7 µM
same,GI50,[42],1.78 µM
same,TGI,[42],3.78 µM
same,GI50,[57],2.96 µM
same,TGI,[57],21.8 µM
same,GI50,[43],4.5 µM
same,TGI,[43],20 µM
same,GI50,[44],1.99 µM
same,TGI,[44],4.29 µM
same,GI50,[45],2.39 µM
same,TGI,[45],5.15 µM
same,GI50,[58],1.65 µM
same,TGI,[58],3.01 µM
same,GI50,[46],2.7 µM
same,TGI,[46],> 100 µM
same,GI50,[47],3.75 µM
same,TGI,[47],14.1 µM
same,GI50,[48],1.67 µM
same,TGI,[48],3.08 µM
same,GI50,[49],2.91 µM
same,TGI,[49],> 100 µM
same,GI50,[50],1.67 µM
same,TGI,[50],3.12 µM
same,GI50,[59],1.62 µM
same,TGI,[59],3.75 µM
same,GI50,[52],2.13 µM
same,TGI,[52],5.17 µM
same,GI50,[53],2.47 µM
same,TGI,[53],5.67 µM
same,GI50,[54],2.42 µM
same,TGI,[54],24.5 µM
same,GI50,[55],2.07 µM
same,TGI,[55],4.92 µM

# From PubChem BioAssay (NCI)
